Laboratory results from patent US12581252B2, “Substituted pyrrolo[3,4-b]pyridines as PI3K-α inhibitors” (Relay Therapeutics, Inc., priority 2020, dated 2026).

Molecular target: H1047R PIK3CA enzyme (Homo sapiens, UniProt P42336, H1047R)
Assay: ADP-Glo Biochemical PIK3CA Kinase Assay

Sequence of H1047R PIK3CA enzyme (P42336 whole entry H1047R): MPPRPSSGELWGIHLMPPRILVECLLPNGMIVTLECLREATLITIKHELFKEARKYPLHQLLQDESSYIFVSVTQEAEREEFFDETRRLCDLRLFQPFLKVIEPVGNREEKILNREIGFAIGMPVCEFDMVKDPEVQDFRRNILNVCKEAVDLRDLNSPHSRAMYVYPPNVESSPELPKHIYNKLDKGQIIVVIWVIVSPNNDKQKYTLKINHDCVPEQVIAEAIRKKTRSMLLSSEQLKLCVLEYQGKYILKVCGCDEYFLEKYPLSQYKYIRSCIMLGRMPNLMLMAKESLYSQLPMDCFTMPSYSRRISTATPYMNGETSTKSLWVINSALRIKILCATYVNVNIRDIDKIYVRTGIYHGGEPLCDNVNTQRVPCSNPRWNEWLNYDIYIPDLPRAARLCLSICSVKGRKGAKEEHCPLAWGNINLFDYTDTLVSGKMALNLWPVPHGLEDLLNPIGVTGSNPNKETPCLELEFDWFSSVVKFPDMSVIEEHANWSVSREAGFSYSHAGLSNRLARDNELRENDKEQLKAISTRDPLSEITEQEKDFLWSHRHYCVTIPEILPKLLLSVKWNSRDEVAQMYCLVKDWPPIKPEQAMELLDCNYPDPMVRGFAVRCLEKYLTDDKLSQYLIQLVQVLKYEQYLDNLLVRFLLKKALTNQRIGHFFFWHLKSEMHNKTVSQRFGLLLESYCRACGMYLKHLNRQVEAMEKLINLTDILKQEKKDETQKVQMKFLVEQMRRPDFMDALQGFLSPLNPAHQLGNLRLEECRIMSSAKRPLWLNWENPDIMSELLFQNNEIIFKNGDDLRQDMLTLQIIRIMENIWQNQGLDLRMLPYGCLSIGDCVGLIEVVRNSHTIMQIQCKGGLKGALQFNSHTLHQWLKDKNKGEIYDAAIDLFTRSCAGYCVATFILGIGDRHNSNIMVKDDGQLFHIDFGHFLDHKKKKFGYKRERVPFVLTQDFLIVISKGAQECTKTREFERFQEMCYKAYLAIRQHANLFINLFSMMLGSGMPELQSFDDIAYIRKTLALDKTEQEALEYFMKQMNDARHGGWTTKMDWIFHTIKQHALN
Sequence of H1047R PIK3CA enzyme (P27986 whole entry partner): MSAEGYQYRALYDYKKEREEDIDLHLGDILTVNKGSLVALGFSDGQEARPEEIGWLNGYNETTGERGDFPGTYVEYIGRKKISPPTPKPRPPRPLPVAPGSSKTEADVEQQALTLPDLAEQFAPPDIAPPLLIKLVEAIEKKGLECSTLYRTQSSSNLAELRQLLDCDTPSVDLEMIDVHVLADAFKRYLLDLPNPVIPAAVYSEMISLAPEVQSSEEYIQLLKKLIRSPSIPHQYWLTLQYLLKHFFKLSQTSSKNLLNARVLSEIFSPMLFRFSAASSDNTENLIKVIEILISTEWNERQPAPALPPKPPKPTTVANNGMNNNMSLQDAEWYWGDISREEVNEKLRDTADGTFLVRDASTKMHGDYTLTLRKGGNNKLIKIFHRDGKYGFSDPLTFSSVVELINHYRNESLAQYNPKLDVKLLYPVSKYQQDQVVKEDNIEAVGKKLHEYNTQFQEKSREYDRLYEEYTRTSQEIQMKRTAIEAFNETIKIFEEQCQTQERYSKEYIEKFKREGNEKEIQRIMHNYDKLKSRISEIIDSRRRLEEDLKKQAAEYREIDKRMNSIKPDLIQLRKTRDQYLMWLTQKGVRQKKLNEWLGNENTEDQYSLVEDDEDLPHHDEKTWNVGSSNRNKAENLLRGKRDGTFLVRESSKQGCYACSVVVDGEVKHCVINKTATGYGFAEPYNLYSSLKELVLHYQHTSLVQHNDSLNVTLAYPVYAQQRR

Structure (SMILES)	IC50
O=C1N[C@H](c2cc(F)ccc2Cl)c2c(NC(=O)[C@@H]3CCCCN3)cc(-c3ccc4ncnn4c3)cc21 [Compound I-2146]	10 to 100 µM
O=C1N[C@@H](c2cc(F)ccc2Cl)c2c(NC(=O)[C@H]3CCCCN3)cc(-c3ccc4ncnn4c3)cc21 [Compound I-2147]	10 to 100 µM
O=C(Nc1cc(-n2ccnn2)cc2c1C(c1cc(F)ccc1Cl)NC2=O)c1cc(F)cc(C(F)(F)F)c1 (stereo not shown) [Compound I-2148]	≤ 0.1 µM
O=C(Nc1cccc2c1[C@H](CC1CCCC1)NC2=O)c1cc(F)cc(C(F)(F)F)c1 [Compound I-2153]	1 to 10 µM
O=C(Nc1cccc2c1[C@@H](CC1CCCC1)NC2=O)c1cc(F)cc(C(F)(F)F)c1 [Compound I-2154]	1 to 10 µM
O=C1NC(c2cc(F)ccc2Cl)c2c(NC(=O)C3CCC(O)(C(F)(F)F)CC3)cccc21 (stereo not shown) [Compound I-2155]	10 to 100 µM
O=C(Nc1cc(Br)cc2c1C(c1cc(F)cc(F)c1)NC2=O)c1cc(F)cc(F)c1 (stereo not shown) [Compound I-2156]	1 to 10 µM
O=C1NC(c2cc(F)ccc2Cl)c2c(NC3CCCNC3)cc(-c3ccc4ncnn4c3)cc21 (stereo not shown) [Compound I-2158, 6-([1,2,4]triazolo[1,5-a]pyridin-6-yl)-3-(2-chloro-5-fluorophenyl)-4-(piperidin-3-ylamino)isoindolin-1-one]	10 to 100 µM
O=C(Nc1cc(-c2cnn(C(F)F)c2)cc2c1C(c1cc(F)cc(F)c1)NC2=O)c1cc(F)cc(F)c1 (stereo not shown) [Compound I-2161]	0.1 to 0.5 µM
O=C1N[C@@H](c2cc(F)ccc2Cl)c2c(NC(=O)N3C[C@](O)(CO)c4ccccc43)cccc21 [Compound I-2166]	1 to 10 µM
O=C1N[C@H](c2cc(F)ccc2Cl)c2c(NC(=O)N3C[C@@](O)(CO)c4ccccc43)cccc21 [Compound I-2167]	10 to 100 µM
O=C1N[C@H](c2cc(F)ccc2Cl)c2c(NC(=O)N3C[C@](O)(CO)c4ccccc43)cccc21 [Compound I-2168]	10 to 100 µM
O=C1NC(c2cc(F)ccc2Cl)c2c(NC(=O)N3CC(CO)C(C(F)(F)F)C3)cccc21 (stereo not shown) [Compound I-2181]	10 to 100 µM
O=C1NC(c2cc(F)ccc2Cl)c2c(NC(=O)N3CCc4ccncc43)cccc21 (stereo not shown) [Compound I-2182]	10 to 100 µM
O=C1N[C@@H](c2cc(F)ccc2Cl)c2c(Nc3cn[nH]c3)cc(Br)cc21 [Compound I-2184]	10 to 100 µM
O=C1NC(c2cc(F)ccc2Cl)c2c(C#Cc3cc(F)cc(C(F)(F)F)c3)cccc21 (stereo not shown) [Compound I-2187]	10 to 100 µM
O=C(Nc1ccccc1)c1cccc2c1C(c1cc(F)ccc1Cl)NC2=O (stereo not shown) [Compound I-2188]	10 to 100 µM
O=C(Nc1cccc(C(F)(F)F)c1)c1cccc2c1C(c1cc(F)ccc1Cl)NC2=O (stereo not shown) [Compound I-2189]	1 to 10 µM
O=C1NC(c2cc(F)ccc2Cl)c2c(NC(=O)N3CCc4cnccc43)cccc21 (stereo not shown) [Compound I-2191]	1 to 10 µM
CCC(CC(=O)Nc1cccc2c1C(c1cc(F)ccc1Cl)NC2=O)C(C)C(F)(F)F (stereo not shown) [Compound I-2193]	1 to 10 µM
O=C1NC(c2cc(F)ccc2Cl)c2c(NC(=O)c3[nH]nnc3CC(F)(F)F)cccc21 (stereo not shown) [Compound I-2194]	10 to 100 µM
CC(C)(C)CCC1NC(=O)c2cccc(NC(=O)c3cc(F)cc(C(F)(F)F)c3)c21 (stereo not shown) [Compound I-2196]	1 to 10 µM
CC(O)C(CC(=O)Nc1cccc2c1C(c1cc(F)ccc1Cl)NC2=O)C(C)C(F)(F)F (stereo not shown) [Compound I-2198]	10 to 100 µM
CN1CCO/C1=N\c1cc(NC(=O)c2cc(F)cc(C(F)(F)F)c2)c2c(c1)C(=O)NC2c1cc(F)ccc1Cl (stereo not shown) [Compound I-2202]	0.1 to 0.5 µM
O=C1NC(c2cc(F)ccc2Cl)c2c(NC(=O)C34CC(CO)(C3)C4)cccc21 (stereo not shown) [Compound I-2219]	10 to 100 µM
O=C1NC(c2cc(F)ccc2Cl)c2c(NC(=O)N3CCNC(C(F)(F)F)C3)cccc21 (stereo not shown) [Compound I-2222]	10 to 100 µM
O=C1NC(c2cc(F)ccc2Cl)c2c(NC(=O)c3noc4c3COCC4)cccc21 (stereo not shown) [Compound I-2232]	10 to 100 µM
CC1(C)CCc2scc(C(=O)Nc3cccc4c3C(c3cc(F)ccc3Cl)NC4=O)c2C1 (stereo not shown) [Compound I-2235]	1 to 10 µM
